Laboratory results taken from patent US5204361A, “Method for treating laminitis in equine livestock” (priority 1988, dated 1993).

Assays:
[1] = system: mixed caecal/large colon digesta; assay: Experiment 2 Part 1: in vitro fermentation of digesta with cornstarch, avoparcin, virginiamycin, flavomycin 2-32 ug/ml; assay type: cell-based, horse; set-up: Lactate / Total VFA: unit not given here; conditions: for pH / Acet:Prop / Lactate / Total VFA: mean
Procedure: Digesta was taken from the caecum and large colon from recently slaughtered animals and was filtered through nylon gauze (approximately 60 micron apertures). The fluid was diluted 1:1 with a buffer solution described by Bales et al. (1976) and incubated with wheat "corn starch" (with or without antibiotics) at 37° for 16 to 20 hours. Aliquots of digesta diluted with buffer (50 ml) were added to 100 ml conical flasks. The flasks were flushed with carbon dioxide before being sealed with a tightly fitting rubber cap. A 21 gauge needle was inserted through the rubber seal in order to allow gas to escape during the fermentation. On removal from the incubator sub-samples were immediately taken to measure L-lactic acid concentration and pH. For each treatment or level of antibiotic three replicate incubation flasks were used.
A range of concentrations of cornstarch providing: 0, 5, 10, 15 and 20 mg/ml diluted digesta (i.e. from 0 to 1 g cornstarch/conical flask) were tested to determine the amount required to produce a pattern of fermentation with high levels of lactic acid. Flasks were also prepared with cornstarch mixed with antibiotic premixes to provide 15 mg cornstarch/ml incubation mixture and 0, 2, 4, 8, 16 and 32 ug of avoparcin, virginiamycin or flavomycin per ml incubation mixture. After approximately 16 hour incubation at 37° samples were taken to measure lactic acid, VFA and pH.

[2] = system: caecal and large colon digesta of horses; assay: Experiment 2 Part 4: fresh digesta of horses fed pelleted diet with virginiamycin; assay type: in vivo, horse; conditions: for pH, fresh digesta / L-lactate, fresh digesta / Total VFA, fresh digesta / % Acetate, fresh digesta / % Butyrate, fresh digesta / % Iso-valerate, fresh digesta / % Propionate, fresh digesta / % Valerate, fresh digesta: n = 5, mean; for % Acetate, fresh digesta / % Butyrate, fresh digesta / % Iso-valerate, fresh digesta / % Propionate, fresh digesta / % Valerate, fresh digesta: molar percentage, feed with virginiamycin
Procedure: A total of ten horses were used for this experiment. Five horses were offered 5 kg of a pelleted mixture (ground wheat 92.5%, ground lucerne chaff 5% and `Stafac 20` 2.5% to supply approximately 2.5 g virginiamycin. A further 5 horses were offered the same feed but without virginiamycin. Samples of caecal and large colon digesta were taken for analysis of pH, VFA, virginiamycin and L-lactate. Samples were also prepared as described above with buffer solution and incubated (1 flask/sample) with cornstarch (15 mg/ml diluted digesta). Following 20 hours incubation samples were taken for analysis of L-lactate and pH.

[3] = system: horses given controlled doses of ground wheat; assay: Experiment 3: in vivo action of virginiamycin in horses dosed with ground wheat; set-up: species or system horse
Procedure: These animals were pre-dosed with virginiamycin by feeding 2 kg of a mixture containing: chaff 1225 g, sugar 225 g, water 450 g and `Stafac 20` 100 g. This provided approximately 2 g virginiamycin/d. The sugar was first dissolved in water before adding the `Stafac 20` and mixing it into a uniform suspension. This mixture was then added to the chaff and mixed for 20 minutes. When this feed was not eaten on the second day on which it was offered the animals were dosed with 125 g `Stafac 20`/head (2.5 g virginiamycin/head), via a stomach tube. On the third day of the experiment the animals were given a dose of ground wheat. This provided approximately 6 mg virginiamycin/kg liveweight. The wheat was mixed in a slurry with water and given in two equal amounts with an interval of about 2 hours between doses. The animals were examined and sampled at 8 hour intervals over a period of 48 hours as described for Experiment 1 above. Times were taken from the first dose of wheat.
Eight horses were used for this experiment. Four animals received virginiamycin and 4 animals received the same treatment but without virginiamycin. The animals which received virginiamycin were pre-dosed for two days prior to administration of the wheat slurry by feeding 640 g of a mixture containing lucerne chaff 495 g, sugar 16.5 g, cornflour 8.3 g, water 115 g, `Stafac 500` 4.95 g. This provided approximately 2.48 g virginiamycin/d. This was prepared in the following way. An evenly mixed slurry of the sugar, cornflour, water and `Stafac 500` was prepared and this was added to the lucerne chaff before mixing thoroughly in a cement mixer. The control animals received 640 g of lucerne chaff without any additive. The doses of wheat administered on the third day provided 12 grams of ground wheat/kg liveweight. Again this was given in two equal amounts with an interval between doses. The wheat given to the horses on the virginiamycin treatment contained `Stafac 20` (20/kg wheat). This provided approximately 4.8 mg virginiamycin/kg liveweight. The animals were examined and sampled at 8 hour intervals over a period of 48 hours as described above for Experiment 1.

[4] = system: caecal/large colon digesta; assay: Experiment 2 Part 6: therapeutic use, virginiamycin added after the start of fermentation; assay type: cell-based, horse; conditions: virginiamycin 10 ug/ml added at 4, 8 or 12 h; total 24 h; FIG. 6
Procedure: An in vitro experiment was conducted to determine whether by adding the virginiamycin after the start of fermentation of caecal digesta and glucose subsequent lactic acid production could still be prevented.
Samples of caecal/large colon digesta were prepared as described above (Part 5) but with the following treatments (3 replicates/treatment):
(a) Control--incubated for 24 h;
(b) Sampled after 4 h and virginiamycin added before incubating for a total of 24 h;
(c) As for (b) but with sampling etc at 8 h; and
(d) As for (b) but sampling etc after 12 h. Virginiamycin was added to provide 10 ug/ml.

[5] = antibiotic 2 μg/ml, cornstarch 15 mg/ml, approx 16 hour incubation
[6] = antibiotic 4 μg/ml, cornstarch 15 mg/ml, approx 16 hour incubation
[7] = antibiotic 8 μg/ml, cornstarch 15 mg/ml, approx 16 hour incubation
[8] = antibiotic 16 μg/ml, cornstarch 15 mg/ml, approx 16 hour incubation
[9] = antibiotic 32 μg/ml, cornstarch 15 mg/ml, approx 16 hour incubation
[10] = Caecum, feed with virginiamycin approx 14 hours before slaughter
[11] = Colon, feed with virginiamycin approx 14 hours before slaughter

**Q.** Which results are given for virginiamycin?
**A.** control of lactic acid build up ([1]; Experiment 2 screening programme as a whole): consistent and effective control; pH ([1]; antibiotic 2 μg/ml, cornstarch 15 mg/ml, approx 16 hour incubation at 37°): 6.57; Acet:Prop [1, 5]: 2.9; Lactate [1, 5]: 0.2; Total VFA [1, 5]: 93.2; Acet:Prop [1, 6]: 3.1; Lactate [1, 6]: 0.2; Total VFA [1, 6]: 80.8; pH [1, 6]: 6.63; Acet:Prop [1, 7]: 3.2; Lactate [1, 7]: 0.2; Total VFA [1, 7]: 79.7; pH [1, 7]: 6.66; Acet:Prop [1, 8]: 3.8; Lactate [1, 8]: 0.0; Total VFA [1, 8]: 71.3; pH [1, 8]: 6.64; Acet:Prop [1, 9]: 3.7; Lactate [1, 9]: 0.1; Total VFA [1, 9]: 87.1; pH [1, 9]: 6.66; control of lactic acid build-up ([1]; at concentrations as low as 2 g/ml, cornstarch 15 mg/ml): total control; pH, fresh digesta ([2]; Caecum, feed with approx 2.5 g virginiamycin approx 14 hours before slaughter): 6.2; L-lactate, fresh digesta [2, 10]: 10.3 mmol/L; Total VFA, fresh digesta [2, 10]: 76.1 mmol/L; % Acetate, fresh digesta ([2]; Caecum): 50.3%; % Butyrate, fresh digesta ([2]; Caecum): 3.2%; % Iso-valerate, fresh digesta ([2]; Caecum): 0.0%; % Propionate, fresh digesta ([2]; Caecum): 46.5%; % Valerate, fresh digesta ([2]; Caecum): 0.5%; L-lactate, fresh digesta [2, 11]: 10.2 mmol/L; Total VFA, fresh digesta [2, 11]: 118.7 mmol/L; pH, fresh digesta [2, 11]: 6.0; % Acetate, fresh digesta ([2]; Colon): 52.1%; % Butyrate, fresh digesta ([2]; Colon): 3.6%; % Iso-valerate, fresh digesta ([2]; Colon): 1.5%; % Propionate, fresh digesta ([2]; Colon): 44.3%; % Valerate, fresh digesta ([2]; Colon): 0.2%; molar percentage of propionate versus control animals ([2]; fresh digesta): more than twice; molar percentages of acetate, butyrate, isovalerate and valerate versus control animals ([2]; fresh digesta): reduced; pH of the digesta in the caecum or large colon versus control animals ([2]; fresh digesta): no significant effect; total concentration of VFA versus control animals ([2]; fresh digesta, p<0.001): lower total concentration of VFA; concentration of L-lactate in the caecal and large colon digesta versus control animals ([2]; fresh digesta, p<0.05): higher; signs of lameness ([3]; 5 animals dosed with virginiamycin, ground wheat, 48 hours, 3 of 4 controls Obel grade 2): none showed any signs of lameness; faecal pH ([3]; 48 hours after wheat slurry, FIG. 4(b)): no significant change; death after wheat slurry with virginiamycin ([3]; Part 1, 2 horses, approx 6 mg virginiamycin/kg liveweight, build up of gas in the caecum): one died after 16 hours; parameters associated with acidosis (blood bicarbonate and pH, and faecal pH) ([3]; after wheat slurry): within normal limits; blood L-lactate versus control ([3]; at 8 and 16 hours after wheat, FIG. 3): significantly higher; blood D-lactate ([3]; at 16 hours after wheat, FIG. 3): only a minor increase; blood L-lactate versus control ([3]; by 40 hours after wheat, FIG. 3): higher (p<0.05) in the control animals; blood D-lactate level ([3]; in vivo): maintained blood D-lactate at a low level; development of laminitis following excessive carbohydrate intake ([3]; in vivo): protected horses against the development of laminitis; gas produced during the initial rapid fermentation of the carbohydrate ([3]; in vivo): more gas was produced; heart rate versus control horses ([3]; in vivo): higher than that of the control horses; ill effects of the dose, second animal ([3]; in vivo): no ill effects; reduction in lameness versus control ([3]; virginiamycin prior to and in conjunction with the wheat slurry): significant (p<0.05) reduction; time after the start of glucose fermentation at which addition of virginiamycin still prevents the build up of lactic acid [4]: up to 8 h
